Where two headings read alike, the source gives them in different places. Starred links: 1 amine or outer side, 2 acyl side, 3 side chain; linkers in the order of their positions; H or OH if unused. Positions of bridges follow the written chain, without caps; N, C: chain ends. Non-standard residues stand in square brackets, D forms with d. Residues, ends and D or L forms follow the SMILES beside them. *: point of attachment. NMeF = CN[C@@H](Cc1ccccc1)C(=O)O; NMeGABA = CN(CCCC(=O)[*:2])[*:1]; NMeI = CC[C@H](C)[C@H](NC)C(=O)O; NMeβAla = CN(CCC(=O)[*:2])[*:1]; NMeL = CN[C@@H](CC(C)C)C(=O)O; NMeV = CN[C@H](C(=O)O)C(C)C; NMeA = CN[C@@H](C)C(=O)O; Piperidide = C1CCN(*)CC1; dNMeA = CN[C@H](C)C(=O)O; Sar = CNCC(=O)O; tBu = CC(C)(C)*

Series [1] in a line: PAMPA (parallel artificial membrane permeability assay). Particulars: PAMPA. It counts as in vitro ADME. Put shortly:
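Artificial membrane was 10% (w/v) egg lecithin plus 0.5% (w/v) cholesterol in dodecane on a PVDF filter. A 10 mM DMSO stock was added at 0.5% (v/v) to donor buffer (50 mM MOPSO, pH 6.5, 5.0% glycocholic acid). After 18 h at 37 °C, LC/MS or LC/UV gave donor and acceptor levels for Pe.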
(PAMPA measures passive passage across an artificial lipid membrane.)

The nature of series [2]: Metabolic stability in human hepatic microsome. In kind it is in vitro ADME. Particulars: microsomes.
[3] abbreviates: membrane permeation rate (Pe), 50 mM MOPSO buffer pH 6.5 with 5.0% glycocholic acid, 37° C., 18 hours, read-out: iPAMPA Pe.
Setting [4] is: pH 7.4, human hepatic microsome, NADPH(+), read-out: CL NADPH(+).

Consider `CC(C)C[C@@H]1NC(=O)[C@H](Cc2ccccc2)N(C)C(=O)CCN(C)C(=O)C[C@@H](C(=O)N2CCCCC2)NC(=O)[C@H](CC(C)C)N(C)C(=O)[C@H](C)N(C)C(=O)[C@H]([C@@H](C)O)NC(=O)[C@H](CC(C)C)N(C)C(=O)[C@H](Cc2ccccc2)N(C)C1=O` [DP-268] ([NMeβAla][NMeF]L[NMeF][NMeL]T[NMeA][NMeL]D-Piperidide; lactam N-9), for which the Papp at 18 hours, 50 µM in series [1] (setting [3]) was 50 ×10⁻⁶ cm/s. Also, in series [2] (setting [4]), the microsomal CLint at 1 uM was 508 µL/min/mg.

As to `CC(C)C[C@H]1C(=O)N[C@@H](COC(C)(C)C)C(=O)N[C@H](C(=O)N2CCCCC2)CC(=O)N(C)CCC(=O)N(C)[C@@H](C)C(=O)N(C)[C@@H](Cc2ccccc2)C(=O)N(C)[C@@H](CC(C)C)C(=O)N[C@@H]([C@@H](C)O)C(=O)N(C)[C@@H](C)C(=O)N1C` [DP-269] ([NMeβAla][NMeA][NMeF][NMeL]T[NMeA][NMeL]S(tBu)D-Piperidide; lactam N-9), the Papp at 18 hours, 50 µM in series [1] (setting [3]) amounted to 11 ×10⁻⁶ cm/s. Further, the microsomal CLint at 1 uM in series [2] (setting [4]) is 58 µL/min/mg.

Turning to `CC(C)C[C@H]1C(=O)N(C)[C@@H](Cc2ccccc2)C(=O)N[C@H](C(=O)N2CCCCC2)CC(=O)N(C)[C@H](C)C(=O)N[C@@H]([C@@H](C)O)C(=O)N(C)[C@@H](C)C(=O)N(C)[C@@H](Cc2ccccc2)C(=O)N[C@@H](COC(C)(C)C)C(=O)NCC(=O)N1C` [DP-270] ([dNMeA]T[NMeA][NMeF]S(tBu)G[NMeL][NMeF]D-Piperidide; lactam N-9), the Papp at 18 hours, 50 µM in series [1] (setting [3]) was 22 ×10⁻⁶ cm/s. Further, in series [2] (setting [4]), the microsomal CLint at 1 uM amounted to 79 µL/min/mg.

Turning to `CC(C)C[C@H]1C(=O)N(C)[C@@H](Cc2ccccc2)C(=O)NCC(=O)N[C@H](C(=O)N2CCCCC2)CC(=O)N(C)CC(=O)N[C@@H]([C@@H](C)O)C(=O)N(C)[C@@H](C)C(=O)N[C@@H](COC(C)(C)C)C(=O)N(C)[C@@H](Cc2ccccc2)C(=O)N1C` [DP-271] ([Sar]T[NMeA]S(tBu)[NMeF][NMeL][NMeF]GD-Piperidide; lactam N-9), in series [1] (setting [3]), the Papp at 18 hours, 50 µM is 10 ×10⁻⁶ cm/s. Moreover, in series [2] (setting [4]), the microsomal CLint at 1 uM was 38 µL/min/mg.

In the case of `CC[C@H](C)[C@H]1C(=O)N[C@H](C(=O)N2CCCCC2)CC(=O)N(C)CCCC(=O)N(C)[C@@H](Cc2ccccc2)C(=O)N[C@@H]([C@@H](C)O)C(=O)N(C)CC(=O)N[C@@H](COC(C)(C)C)C(=O)N(C)[C@@H](CC(C)C)C(=O)N(C)[C@@H](CC(C)C)C(=O)N1C` [DP-272] ([NMeGABA][NMeF]T[Sar]S(tBu)[NMeL][NMeL][NMeI]D-Piperidide; lactam N-9), in series [1] (setting [3]), the Papp at 18 hours, 50 µM was 49 ×10⁻⁶ cm/s. Further, the microsomal CLint at 1 uM in series [2] (setting [4]) worked out at 82 µL/min/mg.

Consider `CC[C@H](C)[C@@H]1NC(=O)[C@H](Cc2ccccc2)NC(=O)[C@H](C(C)C)N(C)C(=O)CCCN(C)C(=O)C[C@@H](C(=O)N2CCCCC2)NC(=O)[C@H](Cc2ccccc2)NC(=O)[C@H](CC(C)C)N(C)C(=O)CNC(=O)[C@H](CC(C)C)N(C)C(=O)[C@H](C)N(C)C(=O)[C@H]([C@@H](C)O)NC(=O)[C@H](CC(C)C)NC1=O` [DP-273] ([NMeGABA][NMeV]FILT[NMeA][NMeL]G[NMeL]FD-Piperidide; lactam N-12), for which the Papp at 18 hours, 50 µM in series [1] (pH 6.5) worked out at 21 ×10⁻⁶ cm/s. In addition, the microsomal CLint at 1 uM in series [2] (human, pH 7.4, CL NADPH(+)) came to 102 µL/min/mg.

`CC[C@H](C)[C@@H]1NC(=O)[C@H](Cc2ccccc2)N(C)C(=O)[C@H](Cc2ccccc2)NC(=O)[C@H]([C@@H](C)O)NC(=O)[C@H](C(C)C)N(C)C(=O)[C@H](CC(C)C)NC(=O)[C@H](CC(C)C)N(C)C(=O)CCCN(C)C(=O)C[C@@H](C(=O)N2CCCCC2)NC(=O)[C@H](C)NC(=O)[C@H](C)N(C)C1=O` [DP-274] ([NMeGABA][NMeL]L[NMeV]TF[NMeF]I[NMeA]AD-Piperidide; lactam N-11) displayed a Papp at 18 hours, 50 µM in series [1] (pH 6.5) of 25 ×10⁻⁶ cm/s. The molecule further gave a microsomal CLint at 1 uM in series [2] (human, pH 7.4, CL NADPH(+)) of 183 µL/min/mg.

In series [1] (pH 6.5), `CC[C@H](C)[C@@H]1NC(=O)[C@H](CC(C)C)N(C)C(=O)[C@H](CC(C)C)N(C)C(=O)[C@H](C)NC(=O)CCCN(C)C(=O)C[C@@H](C(=O)N2CCCCC2)NC(=O)[C@H](CC(C)C)N(C)C(=O)[C@H](Cc2ccccc2)N(C)C(=O)CN(C)C(=O)[C@H]([C@@H](C)O)NC(=O)[C@H](Cc2ccccc2)N(C)C1=O` [DP-275] ([NMeGABA]A[NMeL][NMeL]I[NMeF]T[Sar][NMeF][NMeL]D-Piperidide; lactam N-11) came in with a Papp at 18 hours, 50 µM of 36 ×10⁻⁶ cm/s. Further, the microsomal CLint at 1 uM in series [2] (human, pH 7.4, CL NADPH(+)) worked out at 440 µL/min/mg.

On to `CC(C)C[C@H]1C(=O)N[C@@H](C)C(=O)N(C)[C@@H](Cc2ccccc2)C(=O)N2CCC[C@H]2C(=O)N(C)[C@@H](CC(C)C)C(=O)N(C)[C@@H](C(C)C)C(=O)N[C@H](C(=O)N2CCCCC2)CC(=O)N(C)CCCC(=O)N[C@@H]([C@@H](C)O)C(=O)N(C)CC(=O)N(C)[C@@H](Cc2ccccc2)C(=O)N1C` [DP-276] ([NMeGABA]T[Sar][NMeF][NMeL]A[NMeF]P[NMeL][NMeV]D-Piperidide; lactam N-11), for which the Papp at 18 hours, 50 µM in series [1] (pH 6.5) came to 19 ×10⁻⁶ cm/s. This molecule also gave a microsomal CLint at 1 uM in series [2] (human, pH 7.4, CL NADPH(+)) of 68 µL/min/mg.

As to `CC(C)C[C@H]1C(=O)N(C)[C@@H](C(C)C)C(=O)N[C@@H](Cc2ccccc2)C(=O)N[C@H](C(=O)N2CCCCC2)CC(=O)N(C)CCCC(=O)N[C@@H](COC(C)(C)C)C(=O)N(C)[C@@H](CC(C)C)C(=O)N(C)[C@@H](Cc2ccccc2)C(=O)N[C@@H]([C@@H](C)O)C(=O)NCC(=O)N1C` [DP-277] ([NMeGABA]S(tBu)[NMeL][NMeF]TG[NMeL][NMeV]FD-Piperidide; lactam N-10), the Papp at 18 hours, 50 µM in series [1] (setting [3]) was 38 ×10⁻⁶ cm/s. Besides, the microsomal CLint at 1 uM in series [2] (setting [4]) was found to be 389 µL/min/mg.

As for `CC[C@H](C)[C@@H]1NC(=O)[C@H](C)N(C)C(=O)C[C@@H](C(=O)N(C)[C@@H](Cc2ccccc2)C(=O)N[C@@H](C)C(=O)N2CCCCC2)NC(=O)[C@H](CC(C)C)N(C)C(=O)[C@H](CC(C)C)NC(=O)[C@@H]2CCCN2C(=O)CNC(=O)[C@H](CC(C)C)N(C)C(=O)[C@H](Cc2ccccc2)N(C)C(=O)[C@H](Cc2ccccc2)NC(=O)[C@H]([C@@H](C)O)NC1=O` [DP-280] ([NMeA]ITF[NMeF][NMeL]GPL[NMeL]D[NMeF]A-Piperidide; lactam N-11), the Papp at 18 hours, 50 µM in series [1] (pH 6.5) worked out at 21 ×10⁻⁶ cm/s. The molecule further returned a microsomal CLint at 1 uM in series [2] (human, pH 7.4, CL NADPH(+)) of 28 µL/min/mg.

As for `CC[C@H](C)[C@@H]1NC(=O)[C@H](C)N(C)C(=O)[C@H](CC(C)C)N(C)C(=O)CCN(C)C(=O)C[C@@H](C(=O)N(C)[C@@H](Cc2ccccc2)C(=O)N[C@@H](C)C(=O)N2CCCCC2)NC(=O)[C@H](CC(C)C)N(C)C(=O)[C@H](Cc2ccccc2)N(C)C(=O)[C@H](Cc2ccccc2)N(C)C(=O)[C@H](C)N(C)C(=O)[C@H]([C@@H](C)O)NC(=O)[C@H](CC(C)C)N(C)C1=O` [DP-281] ([NMeβAla][NMeL][NMeA]I[NMeL]T[NMeA][NMeF][NMeF][NMeL]D[NMeF]A-Piperidide; lactam N-11), the Papp at 18 hours, 50 µM in series [1] (pH 6.5) was determined as 17 ×10⁻⁶ cm/s. In series [2] (human, pH 7.4, CL NADPH(+)), this molecule registered a microsomal CLint at 1 uM of 28 µL/min/mg.

In the case of `CC(C)C[C@@H]1NC(=O)[C@H](CC(C)C)N(C)C(=O)CNC(=O)[C@H](Cc2ccccc2)NC(=O)[C@H](C(C)C)N(C)C(=O)[C@H](Cc2ccccc2)NC(=O)[C@H](C)N(C)C(=O)CCN(C)C(=O)C[C@@H](C(=O)N(C)[C@@H](Cc2ccccc2)C(=O)N[C@@H](C)C(=O)N2CCCCC2)NC(=O)[C@H](C)N(C)C(=O)[C@H](CC(C)C)N(C)C1=O` [DP-282] ([NMeβAla][NMeA]F[NMeV]FG[NMeL]L[NMeL][NMeA]D[NMeF]A-Piperidide; lactam N-11), in series [1] (pH 6.5), the Papp at 18 hours, 50 µM is 28 ×10⁻⁶ cm/s. In addition, the microsomal CLint at 1 uM in series [2] (human, pH 7.4, CL NADPH(+)) came to 138 µL/min/mg.

(Values after patent publication US9409952B2, “Peptide-compound cyclization method” (Chugai Seiyaku Kabushiki Kaisha, priority 2011, dated 2016).)
